Species: Rattus norvegicus
Experiment: Open TG-GATES - Regimen: Single
Type: toxicity, organism-based, Sprague-Dawley
Parameters: regimen Single, gender Male, age 6 weeks
Settings: in vivo, po, 1000 mg/kg, route gavage, dose level High; for APTT / Bas / Eos / Fbg / Hb / Ht / Lym / MCH / MCHC / MCV / Mono / Neu / PT / Plat / RBC / Ret / WBC: tissue Blood; for KIDNEY_L / KIDNEY_R / KIDNEY_TOTAL: tissue Kidney; for LIVER: tissue Liver; for A/G / ALP / ALT / AST / BUN / CRE / Ca / Cl / DBIL / GLC / IP / K / LDH / Na / PL / RALB / TBIL / TC / TG / TP / gamma-GTP: tissue Plasma

`CC(=O)Nc1ccc2c(c1)Cc1ccccc1-2` [2-ACETYLAMINOFLUORENE] showed a TERMINAL_BW (3 h) of 222.5 g, an APTT (3 h) of 20.1 s and a Bas (3 h) of 0.6%. It also gave an Eos (3 h) of 1%, a Fbg (3 h) of 233.2 mg/dL and a Hb (3 h) of 14.2 g/dL. It also gave a Ht (3 h) of 41%, a Lym (3 h) of 73% and an MCH (3 h) of 21.9 pg. For the same compound, the MCHC (3 h) was 34.7%, the MCV (3 h) was 63.3 fL and the Mono (3 h) was 3%. The Neu (3 h) was 21.6%, the PT (3 h) was 12 s and the Plat (3 h) was 122.7 x10_4/uL. It also gave an RBC (3 h) of 648.8 x10_4/ul, a Ret (3 h) of 7.5% and a WBC (3 h) of 60.1 x10_2/uL. It also gave a KIDNEY_L (3 h) of 1 g, a KIDNEY_R (3 h) of 1 g and a KIDNEY_TOTAL (3 h) of 2 g. For the same compound, the LIVER (3 h) was 10.4 g, the A/G (3 h) was 1.6 and the ALP (3 h) was 850.2 IU/L. For the same compound, the ALT (3 h) was 41.4 IU/L, the AST (3 h) was 84 IU/L and the BUN (3 h) was 12.4 mg/dL. The CRE (3 h) was 0.5 mg/dL, the Ca (3 h) was 10.9 mg/dL and the Cl (3 h) was 102.4 meq/L. For the same compound, the DBIL (3 h) was 0.078 mg/dL, the GLC (3 h) was 218.8 mg/dL and the IP (3 h) was 10.5 mg/dL. For the same compound, the K (3 h) was 3.8 meq/L, the LDH (3 h) was 209.6 IU/L and the Na (3 h) was 140.8 meq/L. For the same compound, the PL (3 h) was 151.6 mg/dL, the RALB (3 h) was 3.6 g/dL and the TBIL (3 h) was 0.1 mg/dL. For the same compound, the TC (3 h) was 87.4 mg/dL, the TG (3 h) was 68.8 mg/dL and the TP (3 h) was 5.9 g/dL. For the same compound, the gamma-GTP (3 h) was 1.2 IU/L, the TERMINAL_BW (6 h) was 215.7 g and the APTT (6 h) was 19.6 s. For the same compound, the Bas (6 h) was 0.8%, the Eos (6 h) was 1.2% and the Fbg (6 h) was 227.2 mg/dL. For the same compound, the Hb (6 h) was 14.4 g/dL, the Ht (6 h) was 41.6% and the Lym (6 h) was 73.6%. The MCH (6 h) was 21.9 pg, the MCHC (6 h) was 34.6% and the MCV (6 h) was 63.4 fL. It also gave a Mono (6 h) of 1.8%, a Neu (6 h) of 22.8% and a PT (6 h) of 12.9 s. For the same compound, the Plat (6 h) was 126.1 x10_4/uL, the RBC (6 h) was 656.8 x10_4/ul and the Ret (6 h) was 7.5%. It also gave a WBC (6 h) of 35.4 x10_2/uL, a KIDNEY_L (6 h) of 0.9 g and a KIDNEY_R (6 h) of 0.9 g. The KIDNEY_TOTAL (6 h) was 1.8 g, the LIVER (6 h) was 9.7 g and the A/G (6 h) was 1.7. For the same compound, the ALP (6 h) was 1010.2 IU/L, the ALT (6 h) was 37.4 IU/L and the AST (6 h) was 72.6 IU/L. The BUN (6 h) was 14.4 mg/dL, the CRE (6 h) was 0.5 mg/dL and the Ca (6 h) was 10.7 mg/dL. For the same compound, the Cl (6 h) was 102 meq/L, the DBIL (6 h) was 0.074 mg/dL and the GLC (6 h) was 251.2 mg/dL. It also gave an IP (6 h) of 9.7 mg/dL, a K (6 h) of 4 meq/L and an LDH (6 h) of 228.6 IU/L. It also gave a Na (6 h) of 140.6 meq/L, a PL (6 h) of 133.6 mg/dL and an RALB (6 h) of 3.6 g/dL. The TBIL (6 h) was 0.1 mg/dL, the TC (6 h) was 83.8 mg/dL and the TG (6 h) was 26.6 mg/dL. It also gave a TP (6 h) of 5.8 g/dL, a gamma-GTP (6 h) of 1.4 IU/L and a TERMINAL_BW (9 h) of 214.2 g. The APTT (9 h) was 18.7 s, the Bas (9 h) was 0.6% and the Eos (9 h) was 0.6%. The Fbg (9 h) was 252.4 mg/dL, the Hb (9 h) was 14.8 g/dL and the Ht (9 h) was 42.6%. For the same compound, the Lym (9 h) was 68.8%, the MCH (9 h) was 22 pg and the MCHC (9 h) was 34.7%. The MCV (9 h) was 63.3 fL, the Mono (9 h) was 3.6% and the Neu (9 h) was 25%. It also gave a PT (9 h) of 13.1 s, a Plat (9 h) of 130.1 x10_4/uL and an RBC (9 h) of 673.2 x10_4/ul. For the same compound, the Ret (9 h) was 7.4%, the WBC (9 h) was 46.2 x10_2/uL and the KIDNEY_L (9 h) was 1 g. It also gave a KIDNEY_R (9 h) of 0.9 g, a KIDNEY_TOTAL (9 h) of 1.9 g and an LIVER (9 h) of 10.4 g. It also gave an A/G (9 h) of 1.5, an ALP (9 h) of 751.4 IU/L and an ALT (9 h) of 33 IU/L. It also gave an AST (9 h) of 64.8 IU/L, a BUN (9 h) of 13.4 mg/dL and a CRE (9 h) of 0.5 mg/dL. The Ca (9 h) was 11.1 mg/dL, the Cl (9 h) was 104.6 meq/L and the DBIL (9 h) was 0.066 mg/dL. For the same compound, the GLC (9 h) was 225.4 mg/dL, the IP (9 h) was 9.7 mg/dL and the K (9 h) was 4.2 meq/L. The LDH (9 h) was 196.8 IU/L, the Na (9 h) was 141.4 meq/L and the PL (9 h) was 160.4 mg/dL. For the same compound, the RALB (9 h) was 3.6 g/dL, the TBIL (9 h) was 0.1 mg/dL and the TC (9 h) was 90 mg/dL. It also gave a TG (9 h) of 34.4 mg/dL, a TP (9 h) of 6 g/dL and a gamma-GTP (9 h) of 1 IU/L. For the same compound, the TERMINAL_BW (24 h) was 212.5 g, the APTT (24 h) was 20.3 s and the Bas (24 h) was 0.4%. For the same compound, the Eos (24 h) was 0.8%, the Fbg (24 h) was 209.6 mg/dL and the Hb (24 h) was 14.7 g/dL. For the same compound, the Ht (24 h) was 42.1%, the Lym (24 h) was 67.2% and the MCH (24 h) was 21.8 pg. It also gave an MCHC (24 h) of 35%, an MCV (24 h) of 62.3 fL and a Mono (24 h) of 2.8%. It also gave a Neu (24 h) of 28%, a PT (24 h) of 15 s and a Plat (24 h) of 140.3 x10_4/uL. The RBC (24 h) was 675.8 x10_4/ul, the Ret (24 h) was 7% and the WBC (24 h) was 79.6 x10_2/uL. The KIDNEY_L (24 h) was 1 g, the KIDNEY_R (24 h) was 1 g and the KIDNEY_TOTAL (24 h) was 1.9 g. For the same compound, the LIVER (24 h) was 9.7 g, the A/G (24 h) was 1.6 and the ALP (24 h) was 787.8 IU/L. For the same compound, the ALT (24 h) was 32.4 IU/L, the AST (24 h) was 78.8 IU/L and the BUN (24 h) was 11.6 mg/dL. For the same compound, the CRE (24 h) was 0.6 mg/dL, the Ca (24 h) was 10 mg/dL and the Cl (24 h) was 105 meq/L. It also gave a DBIL (24 h) of 0.1 mg/dL, a GLC (24 h) of 190.6 mg/dL and an IP (24 h) of 8.7 mg/dL. The K (24 h) was 4.2 meq/L, the LDH (24 h) was 252.4 IU/L and the Na (24 h) was 140.8 meq/L. It also gave a PL (24 h) of 116.8 mg/dL, an RALB (24 h) of 3.3 g/dL and a TBIL (24 h) of 0.2 mg/dL. The TC (24 h) was 59.6 mg/dL, the TG (24 h) was 67.4 mg/dL and the TP (24 h) was 5.3 g/dL. It also gave a gamma-GTP (24 h) of 1.2 IU/L.
